Test results published in patent US12005265B2, “Compositions and methods to modulate cell activity” (THE ROCKEFELLER UNIVERSITY, priority 2014, dated 2024).

Tests used:
N38 cells [1] = experiment: Effect of RF on pCREB and c-fos in N38 cells; format: cell-based, mouse; settings: N38 cells expressing αGFP-TRPV1/GFP-ferritin
Method: Effect of RF or magnet on pCREB and cFos: 24 h prior to the study, cells were placed in 1% FBS medium at 32° C. to ensure minimal activation of TRPV1 and calcium dependent pathways. On the day of study, cells were incubated in 500 μl of calcium imaging buffer at room temperature (control) or in a RF field (31 mT) at room temperature. For magnet treatment, cells were treated with a static magnetic field (280 mT) for 5 seconds every 2 minutes for 1 hour at room temperature. After 60 min, the cells were placed on ice, the supernatant removed and cells lysed with RIPA buffer (40 μl, pCREB) or lysis buffer (100 μl Agilent Absolutely RNA microprep kit) and frozen at −80° C. until assay or RNA purification. Each study was repeated on 3 occasions each with 4 replicates. Control studies with N38 cells alone were performed on 2 occasions with 4 replicates.
Protein was isolated by lysis in RIPA buffer and centrifugation at 16000 rpm, 4° C. for 5 min before addition of 4× Laemelli buffer. Samples were denatured for 5 mins at 95° C. and frozen at −20° C. before assay. Samples (15 ul) were run on a 4-15% gel then transferred to PVDF membrane. Membranes were blocked (3% dried milk in TBST buffer) for 1 hour at room temperature then incubated in primary antibody (Phospho-CREB (Ser133) (87G3) Rabbit mAb (1:1000) or beta Actin Rabbit Ab (1:1000), Cell Signaling) in TBST overnight at 4 degrees. […]

N38 cells [2] = experiment: Calcium imaging of stably transfected N38 cells under RF or magnet; format: cell-based, mouse; settings: N38 cells expressing αGFP-TRPV1/GFP-ferritin
Method: TRPV1 is a non-selective cation channel with relatively high permeability to divalent cations, particularly calcium (Ca2+>Mg2+>Na+K+Cs+)^55. […] Cells were washed again in PBS then incubated for 15-30 min in sulfinpyrazone in PBS. […] Images were acquired every 3 seconds for 3 minutes. […] Imaging was repeated in the presence of Ruthenium red (100 μM) (2 occasions for each condition). Images were analyzed using Image J software.
For studies to examine the effects of increasing RF or magnet field strength, to assess the effects of short RF treatment (10s) on calcium responses and to examine the kinetics of the calcium response, cells were loaded with FluoForte 20 μM (Enzo Life Sciences, Lorrach, Germany) in the presence of Pluronic F-127 (0.02% vol/vol) and sulfinpyrazone 500 μM. […] Imaging was performed as above with images acquired every second for 1 minute. Cells were imaged without treatment (4 occasions), before and during RF treatment at 31, 27 and 23 mT (4 occasions each), before and during application of a neodymium magnet at 280 or 130 mT (magnet 2 mm or 5 mm from the cells respectively, 4 occasions each) and before, during and after 10 second treatment with RF (31 mT) (4 occasions). Images were analyzed using Image J software.

N38 cells [3] = experiment: Multiphoton chloride imaging (MQAE) of stably transfected N38 cells; format: cell-based, mouse
Method: Stably transfected cells were washed with Krebs-HEPES buffer 3 times then loaded with MQAE (N-(Ethoxycarbonylmethyl)-6-Methoxyquinolinium Bromide, 5 mM, Invitrogen) for 60 min at room temperature. […] Imaging was performed using LSM 510 NLO inverted multiphoton and confocal system (Zeiss) using a 40× objective with two photon excitation at 750 nm. […] Imaging was repeated in the presence of Ruthenium red (100 μM) (2 occasions for each condition). Images were analyzed using Image J software.

HEK or N38 cells = experiment: Whole cell voltage clamp recordings of cultured HEK and N38 cells; format: cell-based; settings: 2APB 200 μM, −60 mV
Method: Neurons expressing GFP were visualized using epifluorescence on an upright Zeiss Axioskop 2FS Plus microscope equipped with a Hamamatsu CCD camera. External solution contained (in mM): 140 NaCl, 2.8KCl, 2CaC2, 1 MgCl2, 1HEPES, 10 glucose, pH 7.4.
I-V relationships were obtained by measuring current responses to increasing 5 mV steps in the presence of 200 μM 2APB. Cells were held at −60 mV. Magnetic activation was applied by bringing a permanent magnet within 500 microns of the recorded cell for 5 seconds with a micromanipulator. Recordings were acquired with an Axopatch 200B amplifier, filtered to 2 kHz and digitized at 10 kHz (pClamp software, Molecular Devices). Data were analyzed using IGOR Pro (Wavemetrics) and NeuroMatic. (neuromatic.thinkrandom.com). Series resistance was monitored and not compensated for. If there was more than a 20% change in series resistance the recording was excluded.

αGFP-TRPV1 = settings: HEK cells transfected with αGFP-TRPV1; 2APB; vs 0.85-fold
Method: Transfected cells were washed three times in PBS then loaded with Fluo-4 3 μM (Invitrogen) in the presence of sulfinpyrazone 500 μM (Sigma) for 60 min at room temperature. Cells were washed again in PBS then incubated for 30 min in sulfinpyrazone in PBS. Cells were washed and then imaged in calcium imaging buffer. Imaging was performed using a Deltavision personal DV imaging system (Applied Precision, Issawaq, WA) equipped with a custom-made ceramic lens.

[4] = N38 cells stably transfected with αGFP-TRPV1^Mutant/GFP-ferritin

What does the source list for `N.N.N.N.N.N.N.N.N.N.N.N.N.N.[Cl-].[Cl-].[Cl-].[Cl-].[Cl-].[Cl-].[O-2].[O-2].[Ru+3].[Ru+3].[Ru+4]` [ruthenium red]?
effect on RF-induced increase of pCREB and c-fos (N38 cells [1]): blocked; effect on RF-induced rise of intracellular calcium (N38 cells [2]): blocked; effect on magnet-induced increase of intracellular calcium (N38 cells [2]): blocked; effect on magnet-induced increase of intracellular chloride (N38 cells [3]; N38 cells expressing αGFP-TRPV1^Mutant/GFP-ferritin): blocked; effect on 2APB-induced increase of intracellular chloride (N38 cells [3]; [4]): blocked

What does the source list for `NCCOB(c1ccccc1)c1ccccc1` [2APB, 2-aminoethoxydiphenyl borate]?
current induced by TRPV1 agonist (HEK or N38 cells; HEK cell expressing αGFP-TRPV1/GFP-ferritin): inward current; current induced by TRPV1 agonist (HEK or N38 cells; HEK cell expressing αGFP-TRPV1^Mutant/GFP-ferritin): outward current; change in Fluo-4 fluorescence (intracellular calcium) (αGFP-TRPV1): 2.0 fold; level of intracellular chloride measured by MQAE quenching (N38 cells [3]; [4]): significantly increased
